The source of these data is publication PMC11345766, “Computational Design of Pore-Forming Peptides with Potent Antimicrobial and Anticancer Activities” (Journal of Medicinal Chemistry, 2024).

Test [1] deals with A498. The test can be described thus: cells. The conditions noted are these: Homo sapiens, Kidney, DMEM + 10% FCS, 72 hours. The format is cell-based. As for the experimental part:
(§1) The CellTiter-Glo luminescent cell viability assay examining the impact of peptides on 22 different human cell lines was purchased from Reaction Biology Europe GmbH (Germany). Cells were cultured in different media (Table S1), seeded into a flat-bottom 96-well plate, and incubated at 37 °C. After overnight incubation, test compounds were added with 1% PBS/0.3% Tween 20 and the reference compound bortezomib was added with 0.1% DMSO. Negative controls were solvents alone, and positive control was 10 μM staurosporine. After 72 h of incubation at 37 °C, 5 or 10% CO2 (dependent on the medium), and 1 h equilibration at room temperature, well plates were treated with CellTiter-Glo reagent (Promega) for an hour and luminescence was measured using a luminometer.
(§2) Table S1. In vitro activity against 22 different human cancer cell lines.
(§3) Sr. Cancer Activity (in M)
(§4) no. Cell line type Culture medium
(§5) The effect of investigated compounds on the proliferation of 22 different human cell lines is
(§6) Twenty of these 22 cell lines represent specific cancer types and 2 were non-cancerous. Peptide
(§7) Anticancer drug bortezomib was used as the […]

Test [2] has as its system A549. The test can be described thus: cells. Type of test: cell-based. The conditions noted are these: Homo sapiens, Lung, DMEM + 10% FCS, 72 hours. The method, then: as §1, §2, §3, §4, §5, §6, §7
Test [3] deals with Caki-1. As to the kind of experiment: cells. Type of test: cell-based. The conditions noted are these: Homo sapiens, Kidney, DMEM + 10% FCS, 72 hours. As for the experimental part:
as §1, §2, §3, §4, §5, §6, §7

Test [4] has as its system DU-145. As to the kind of experiment: cells. The format is cell-based. The conditions noted are these: Homo sapiens, Prostate, DMEM + 10% FCS, 72 hours. As for the experimental part: as §1, §2, §3, §4, §5, §6, §7
In test [5] the test system is H460. As to the kind of experiment: cells. The format is cell-based. The conditions noted are these: Homo sapiens, NCI-H460; Lung; DMEM + 10% FCS; 72 hours. The method, then: as §1, §2, §3, §4, §5, §6, §7
In test [6] the test system is HCT116. The test can be described thus: cells. Type of test: cell-based. The conditions noted are these: Homo sapiens, HCT-116; Colorectal; DMEM + 10% FCS; 72 hours. As for the experimental part:
as §1, §2, §3, §4, §5, §6, §7

In test [7] the test system is HL-60. The test can be described thus: cells. Type of test: cell-based. The conditions noted are these: Homo sapiens, Leukemia, RPMI-1640 + 10% FCS, 72 hours. As for the experimental part:
as §1, §2, §3, §4, §5, §6, §7

Test [8] concerns K562. The test can be described thus: cells. Type of test: cell-based. The conditions noted are these: Homo sapiens, Leukemia, RPMI-1640 + 10% FCS, 72 hours. As for the experimental part:
as §1, §2, §3, §4, §5, §6, §7

The subject of test [9] is MCF-7. The test can be described thus: cells. Type of test: cell-based. The conditions noted are these: Homo sapiens, MCF7; Breast; DMEM + 10% FCS; 72 hours. The method, then:
as §1, §2, §3, §4, §5, §6, §7

Test [10] deals with MDA MB 231. As to the kind of experiment: cells. The format is cell-based. The conditions noted are these: Homo sapiens, Breast, DMEM + 10% FCS, 72 hours. The method, then: as §1, §2, §3, §4, §5, §6, §7
Test [11] concerns MOLT-4. As to the kind of experiment: cells. The format is cell-based. The conditions noted are these: Homo sapiens, Leukemia, DMEM + 10% FCS, 72 hours. As for the experimental part:
as §1, §2, §3, §4, §5, §6, §7

For test [12], the system named is MSC_UC. The test can be described thus: cells. Type of test: cell-based. The conditions noted are these: Homo sapiens; Non-cancerous; Promocell MSC-Medium C-28010 + Sup. C39810; 72 hours. The method, then: as §1, §2, §3, §4, §5, §6, §7
Test [13] relates to NHDF. As to the kind of experiment: cells. Type of test: cell-based. The conditions noted are these: Homo sapiens; Non-cancerous; Promocell NHDF-Medium C-23010 + Sup. C39315; 72 hours. As for the experimental part:
as §1, §2, §3, §4, §5, §6, §7

Test [14] has as its system PC3. The test can be described thus: cells. Type of test: cell-based. The conditions noted are these: Homo sapiens, PC-3; Prostate; DMEM + 10% FCS; 72 hours. The method, then:
as §1, §2, §3, §4, §5, §6, §7

The test system of test [15] is SK-OV3. The test can be described thus: cells. Type of test: cell-based. The conditions noted are these: Homo sapiens, SK-OV-3; Ovarian; DMEM + 10% FCS; 72 hours. The method, then:
as §1, §2, §3, §4, §5, §6, §7

The subject of test [16] is SW620. The test can be described thus: cells. The format is cell-based. The conditions noted are these: Homo sapiens, SW-620; Colorectal; DMEM + 10% FCS; 72 hours. The method, then:
as §1, §2, §3, §4, §5, §6, §7

The test system of test [17] is T-47D. The test can be described thus: cells. The format is cell-based. The conditions noted are these: Homo sapiens, T47D; Breast; RPMI-1640 +10% FCS + 0,2U/mL Insulin; 72 hours. The method, then:
as §1, §2, §3, §4, §5, §6, §7

The test system of test [18] is U251MG. As to the kind of experiment: cells. The conditions noted are these: Homo sapiens, U-251; Brain; DMEM + 10% FCS; 72 hours. The format is cell-based. The method, then:
as §1, §2, §3, §4, §5, §6, §7

For test [19], the system named is HCT-15. As to the kind of experiment: cells. Type of test: cell-based, human. The conditions noted are these: Homo sapiens, HCT-15; Colorectal; RPMI-1640 +10% FCS; 72 hours; read-out: Activity (in M), IC50. The method, then: as §1, §2, §3, §4, §5, §6, §7
In test [20] the test system is MDA MB 435. The test can be described thus: cells. Type of test: cell-based, human. The conditions noted are these: Homo sapiens, MDA-MB-435; Melanoma; RPMI-1640 +10% FCS; 72 hours; read-out: Activity (in M), IC50. As for the experimental part: as §1, §2, §3, §4, §5, §6, §7
The test system of test [21] is OVCAR-3. The test can be described thus: cells. The format is cell-based, human. The conditions noted are these: Homo sapiens, OVCAR-3; Ovarian; RPMI-1640 +10% FCS; 72 hours; read-out: Activity (in M), IC50. The method, then: as §1, §2, §3, §4, §5, §6, §7
For test [22], the system named is RPMI 8226. The test can be described thus: cells. Type of test: cell-based, human. The conditions noted are these: Homo sapiens, RPMI-8226; Myeloma; RPMI-1640 +10% FCS; 72 hours; read-out: Activity (in M), IC50. The method, then:
as §1, §2, §3, §4, §5, §6, §7

Test [23] deals with E. coli (TOP10). As to the kind of experiment: Broth microdilution antimicrobial susceptibility assay. Type of test: cell-based, Escherichia coli. The conditions noted are these: Escherichia coli; 24 h, MHB. An excerpt:
(§8) To test antimicrobial activity, all peptides were initially screened, in a broth microdilution assay, against Gram-negative Escherichia coli (TOP10) and Gram-positive Staphylococcus carnosus (CCM 4838T) Biosafety Level 1 (BSL-1) bacteria (Table 2). […] Four other mutants (LP3, LP26, LP36, and LP39) had higher activity than LP1 against E. coli, and two mutants (LP23 and LP32) had higher activity than LP1 against S. carnosus. Six mutants (LP29, LP30, LP31, LP33, LP40, and LP43) were not active against one or both bacteria, even at the highest concentration tested (50 μM).
(§9) Antimicrobial activity against E. coli TOP10 and S. carnosus CCM 4838T was tested using the broth microdilution assay. Bacteria were cultured in MHA Petri dish for 24 h, subcultured in an MHB test tube for 6 h at 37 °C, and diluted to 10^6 CFU/mL (OD600). […] Dilution series was prepared for concentrations 50 to 0.1 μM in a flat-bottom 96-well plate, inoculated with bacteria, and incubated for 24 h at 37 °C. Growth control wells were free from test compounds, and sterility control wells were free from bacteria. Bacterial MIC was determined as the lowest concentration of test compounds that inhibited visible growth of bacteria (i.e., no visible turbidity).

In test [24] the test system is S. carnosus (CCM 4838T). The test can be described thus: microbe, parasite or virus in culture. Type of test: cell-based, Staphylococcus carnosus. The conditions noted are these: Staphylococcus carnosus; 24 h, MHB; read-out: Antimicrobial activity (MIC) S. carnosus (CCM 4838T).
Source text: as §8, §9

For test [25], the system named is ESKAPEE pathogens. As to the kind of experiment: MIC against five commercially available ESKAPEE strains (Figure 3a). The format is cell-based. The method, then: First, LP1 and five mutants (LP3, LP8, LP18, LP22, and LP28) were tested against five commercially available ESKAPEE strains (Figure 3a). Promising activity was obtained against Gram-negative Acinetobacter baumannii (GSAB 164), which is resistant to colistin and meropenem, followed by a quality control strain of E. coli (ATCC 25922). Micromolar activity, i.e., MIC of 1 μM, was obtained with both LP1 and LP18.
(Protocol a) Antimicrobial activity test against ESKAPEE strains S. aureus NRS 1, K. pneumoniae ATCC 700603, A. baumannii GSAB 164, P. aeruginosa NCTC 13437, and E. coli ATCC 25922 was purchased from Evotec (UK).

For test [26], the system named is ESKAPEE pathogens. The test can be described thus: MIC against six reference strains of ESKAPEE pathogens (Figure 3b). Type of test: cell-based.
Source text: The effect of net charge was further investigated against six reference strains of ESKAPEE pathogens (Figure 3b).
Test [27] concerns ESKAPEE pathogens. As to the kind of experiment: MIC against nine ampicillin-resistant ESKAPEE strains (Figure 3d). The format is cell-based. The conditions noted are these: 72 h.

In brackets after ≈: the same amount, converted by molar mass.

For the compound `CC(C)C[C@H](NC(=O)[C@H](Cc1ccccc1)NC(=O)c1cnccn1)B(O)O` [Bortezomib], the IC50 is 9.1 nM in [1]; 25 nM in [2]; 12 nM in test [3]; 16 nM in test [4]; 26 nM in test [5]; 6.9 nM in test [6]. The IC50 in test [7] turned out to be 4.1 nM; in [8], 9.1 nM; in test [9], 21 nM; in test [10] it was 12 nM; in test [11] it was 4 nM; in test [12], 4.7 nM. For the same compound, the IC50 in [13] amounted to 14 nM; in test [14] it was 16 nM; in [15] it was 19 nM; in test [16], 10 nM; in test [17] it was 8.6 nM; in test [18], 19 nM. The IC50 in [19] was determined as 9.8 nM; in test [20] it was 4.3 nM; in test [21], 4 nM; in [22], 3.2 nM.

`CC1(C)S[C@@H]2[C@H](NC(=O)[C@H](N)c3ccccc3)C(=O)N2[C@H]1C(=O)O` [Ampicillin]: the MIC in test [23] is 12.5 µM (≈ 4.37 µg/mL); in test [24] it was 0.1 µM (≈ 0.0349 µg/mL); in test [25], more than 180 µM; in test [26] it was more than 92 µM; in test [27], more than 360 µM.
